From patent US11078188B2, “Dihydroquinoxaline bromodomain recognition protein inhibitor, preparation method and use thereof” (SHANGHAI INSTITUTE OF MATERIA MEDICA, CHINESE ACADEMY OF …, priority 2017, dated 2021)

Columns and labels:
Type in all cases: in vitro ADME
2C9 = 2C9 (Homo sapiens (Human), UniProt P11712); experiment: Direct inhibition test (DI test), CYP 2C9; details: human liver microsomes 0.2 mg/ml, 20 min
Method: (§1) The system which was 100 μl of human liver microsomes (final concentration: 0.2 mg/ml) was used for direct inhibition incubation. The system contained NADPH (final concentration: 1 mM), 10 μl compound, positive inhibitor cocktail (ketoconazole, 10 μl, quinidine 10 μl, sulfaphenazole 100 μl, naphthoflavone 10 μl, tranylcypromine 1000 μl), negative control 10 μl DMSO and mixed probe substrate (midazolam 10 μl, testosterone 100 μl, dextromethorphan 10 μl, diclofenac 20 μl, phenacetin 100 μl, mephenytoin 100 μl). The reaction was stopped after the system was incubated for 20 min. The relative activity of the enzyme was calculated by measuring the relative amount of production of the metabolite.

2C19 = 2C19 (Homo sapiens (Human), UniProt P33261); experiment: Direct inhibition test (DI test), CYP 2C19; details: human liver microsomes 0.2 mg/ml, 20 min
Method: as §1

CYP2D6 = CYP2D6 (Homo sapiens (Human), UniProt P10635); experiment: Direct inhibition test (DI test), CYP 2D6; details: human liver microsomes 0.2 mg/ml, read-out: Direct inhibition rate (%) 2D6
Method: as §1

Sequence of 2C9 (P11712 whole entry): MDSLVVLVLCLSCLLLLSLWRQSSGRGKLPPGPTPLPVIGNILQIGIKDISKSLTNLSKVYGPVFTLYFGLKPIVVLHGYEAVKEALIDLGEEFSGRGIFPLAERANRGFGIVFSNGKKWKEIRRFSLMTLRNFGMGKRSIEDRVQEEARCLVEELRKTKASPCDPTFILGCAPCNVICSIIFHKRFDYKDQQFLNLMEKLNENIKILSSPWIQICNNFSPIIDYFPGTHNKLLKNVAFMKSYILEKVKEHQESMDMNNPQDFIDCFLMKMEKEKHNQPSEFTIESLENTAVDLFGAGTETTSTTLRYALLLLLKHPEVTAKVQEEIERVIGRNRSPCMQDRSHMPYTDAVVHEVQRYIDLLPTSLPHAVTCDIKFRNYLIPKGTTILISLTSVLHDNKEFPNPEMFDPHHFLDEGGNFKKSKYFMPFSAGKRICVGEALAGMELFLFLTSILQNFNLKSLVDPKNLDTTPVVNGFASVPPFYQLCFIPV
Sequence of CYP2D6 (P10635 whole entry): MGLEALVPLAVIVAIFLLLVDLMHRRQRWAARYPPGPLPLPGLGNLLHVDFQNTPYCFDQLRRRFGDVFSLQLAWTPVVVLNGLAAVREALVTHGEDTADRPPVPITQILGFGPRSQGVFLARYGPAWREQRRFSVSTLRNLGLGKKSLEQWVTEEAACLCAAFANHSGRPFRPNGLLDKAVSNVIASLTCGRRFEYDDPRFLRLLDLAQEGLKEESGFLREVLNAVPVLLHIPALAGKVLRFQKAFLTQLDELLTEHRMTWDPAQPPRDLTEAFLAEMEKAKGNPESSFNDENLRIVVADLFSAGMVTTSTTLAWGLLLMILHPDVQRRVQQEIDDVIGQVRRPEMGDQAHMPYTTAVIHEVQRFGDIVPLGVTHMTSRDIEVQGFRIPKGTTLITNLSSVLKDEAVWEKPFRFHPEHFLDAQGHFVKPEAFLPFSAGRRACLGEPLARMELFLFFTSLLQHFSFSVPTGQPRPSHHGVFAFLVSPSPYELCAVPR
Sequence of 2C19 (P33261 whole entry): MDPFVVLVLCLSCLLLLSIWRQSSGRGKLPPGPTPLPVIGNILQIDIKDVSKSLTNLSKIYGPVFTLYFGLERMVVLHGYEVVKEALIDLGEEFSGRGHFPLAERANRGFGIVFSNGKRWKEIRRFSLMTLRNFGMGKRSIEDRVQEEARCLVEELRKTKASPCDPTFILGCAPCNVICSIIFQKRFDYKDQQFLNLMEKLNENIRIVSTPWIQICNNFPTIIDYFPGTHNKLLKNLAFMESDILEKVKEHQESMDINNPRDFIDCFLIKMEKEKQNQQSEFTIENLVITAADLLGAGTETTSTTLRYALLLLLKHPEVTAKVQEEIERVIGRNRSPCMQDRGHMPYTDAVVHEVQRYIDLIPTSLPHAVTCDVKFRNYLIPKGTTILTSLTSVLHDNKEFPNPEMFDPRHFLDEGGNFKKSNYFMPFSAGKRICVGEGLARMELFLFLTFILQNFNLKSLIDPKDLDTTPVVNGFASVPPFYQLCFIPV

For Cc1ccc(-n2nc(C(=O)N3C[C@@H](C)N[C@@H](C)C3)nc2-c2ccc3c(c2)N(C2CCCC2)[C@H](C)C(=O)N3C)cc1 [Example 12], the “Direct inhibition rate (%) 2C9” value (2C9) was 28%, the “Direct inhibition rate (%) 2C19” value (2C19) was 12% and the inhibition at 20 min (CYP2D6) was 4%.
